Reference: patent US5039706A, “Antiinflammatory PLA2 inhibitors” (Du Pont Merck Pharmaceutical Company, priority 1989, dated 1991)
Where a name gives a salt, the structure may show the parent alone.

These compounds were tested on inflammation induced by tetradecanoyl phorbol acetate (TPA) (assay: TPA inflammation inhibition test (mouse ear edema)). Details: topical, 4 h, TPA to right ear, edema measured four hours later, read-out: % Inhibition of Control Swelling.
Format: in vivo, mice
Parameters: dose or concentration left out as unconfirmed
Source text: One such model is the inflammation induced by tetradecanoyl phorbol acetate (TPA), modified from the method of Kuehl et al., Nature, 1977, 265, 170; and Van Arman, Clin. Pharmacol. Ther., 1974, 16, 900. The TPA model mimics many of the inflammatory changes which occur in human skin diseases such as psoriasis, since elevated levels of inflammatory arachidonic acid metabolites are found and an influx of polymorphonuclear leukocytes is observed. The test procedure used to evaluate the compounds of Formula (I) is as follows: the test compound […] is applied to both ears of mice in an appropriate vehicle, such as acetone, and then the inflammatory stimulus (TPA) is applied to the right ear. Four hours later, the edema is measured by removing standard size discs from the ears using a biopsy punch. A control group of animals receives TPA in vehicle applied to the right ear, and vehicle alone to the left ear. The weights of the ear discs are determined, and the suppression of swelling observed in animals treated with the test compound is determined.
With CC1(C)C2CCC(CNCCC(N)c3ccc(F)cc3)C1C2 (single isomer, unassigned) [Example 11, 4-Fluoro-α-(2-[(1α,2α,5α-7,7-dimethylbicyclo[3.1.1]-heptanyl-2-methyl)amino]ethyl)benzenemethanamine Dihydrochloride] the inhibition in vivo was 45%.
With CC(C)c1ccc2c(c1)CCC1C(C)(CNCCC(N)c3ccc(F)cc3)CCCC21C (stereo not drawn) [Example 1, α-(2-[1,4a-Dimethyl-7-(2-propyl)-1,2,3,4,4a,9,10,10a-octahydro-1-phenanthrenylmethylamino]ethyl)-4-fluorobenzenemethanamine Dihydrochloride] the inhibition in vivo was 89%.
Work on CCCCCCCCSCCCC(N)c1ccc(F)cc1 (stereo not drawn) [Example 5, 4-Fluoro-α-[3-(octylthio)propyl]benzenemethanamine Hydrochloride] yielded an inhibition in vivo of 46%.
In the case of Cc1ccc(SCCCC(N)c2ccc(F)cc2)cc1 (stereo not drawn) [Example 7, 4-Fluoro-α-[3-(4-methylphenylthio)propyl]benzenemethanamine Hydrochloride], the inhibition in vivo was 22%.
CC(C)c1ccc2c(c1)CCC1C(C)(CNCCCC(N)c3ccc(F)cc3)CCCC21C (stereo not drawn) [Example 8, 4-Fluoro-α-(4-[1,4a-dimethyl-7-(2-propyl)-1,2,3,4,4a,9,10,10a-octahydro-1-phenanthrenylmethylamino]propyl)-benzenemethanamine Dihydrochloride] was tested, and the inhibition in vivo was 50%.
In the case of NC(CCCSc1ccncc1)c1ccc(F)cc1 (stereo not drawn) [Example 10, 4-Fluoro-α-[3-(4-pyridinylthio)propyl]benzenemethanamine Dihydrochloride], the inhibition in vivo was 24%.
For CCCCCCCCNCCC(N)c1ccc(F)cc1 (stereo not drawn) [Example 21, 4-Fluoro-α-[2-(octylamino)ethyl]benzenemethanamine Dihydrochloride], the inhibition in vivo was 68%.
With COc1ccc(CNCCC(N)c2ccc(F)cc2)c2ccccc12 (stereo not drawn) [Example 22, 4-Fluoro-α-(2-[(4-methoxynaphthalenyl)methylamino]ethyl)benzenemethanamine Dihydrochloride] the inhibition in vivo was 26%.
CCCCCCCNCCC(N)c1ccc(F)cc1 (stereo not drawn) [Example 26, 4-Fluoro-α-[2-heptylamino)ethyl]benzenemethanamine Dihydrochloride] was tested, and the inhibition in vivo was 52%.
CCCCCCCCCCCNCCC(N)c1ccc(F)cc1 (stereo not drawn) [Example 27, 4-Fluoro-α-[2-undecylamino)ethyl]benzenemethanamine Dihydrochloride] gave an inhibition in vivo of 51%.
CCCCCCNCCC(N)c1ccc(F)cc1 (stereo not drawn) [Example 28, 4-Fluoro-α-[2-(hexylamino)ethyl]benzenemethanamine Dihydrochloride] gave an inhibition in vivo of 51%.
CC1(C)C2CCC(CNCCC(N)c3ccc(F)cc3)C1C2 (stereo not drawn) [Example 30, α-[2-(7,7-Dimethylbicyclo[3,1,1]heptyl-2-methylamino)ethyl]-4-fluoro-benzenemethanamine Dihydrochloride] was tested, and the inhibition in vivo was 34%.
With CC(C)(C)CC(C)(C)NCCC(N)c1ccc(F)cc1 (stereo not drawn) [Example 34, 4-Fluoro-α-[2-(1,1,3,3-tetramethylbutyl)aminoethyl]benzenemethanamineDihydrochloride] the inhibition in vivo was 22%.
CC(NCCC(N)c1ccc(Cl)cc1)C12CC3CC(CC(C3)C1)C2 (stereo not drawn) [Example 36, 4-Chloro-α-(2-[1-(3-adamantyl)ethylamino]ethyl)benzenemethanamine Dihydrochloride] showed an inhibition in vivo of 48%.
In the case of NC(CCCSc1ccccc1)c1ccc(F)cc1 (stereo not drawn) [Example 38, 4-Fluoro-α-(3-phenylthiopropyl)benzenemethanamine Hydrochloride], the inhibition in vivo was 30%.
For CC(NCCC(N)c1ccc(F)cc1)C12CC3CC(CC(C3)C1)C2 (stereo not drawn) [Example 39, 4-Fluoro-α-(2-[1-(3-adamantyl)ethylamino]ethyl)benzenemethanamine Dihydrochloride], the inhibition in vivo was 50%.
For NC(CCNCCc1cccc2ccccc12)c1ccc(F)cc1 (stereo not drawn) [Example 40, 4-Fluoro-α-(2-[2-(1-naphthalenyl)ethylamino]ethyl)benzenemethanamine Dihydrochloride], the inhibition in vivo was 29%.
CCCCCCCCCCCCCCCCCCNCCC(N)c1ccc(F)cc1 (stereo not drawn) [Example 42, 4-Fluoro-α-[2-(octadecylamino)ethyl]benzenemethanamine Dihydrochloride] gave an inhibition in vivo of 22%.
NC(CCCSc1ccc(F)cc1)c1ccc(F)cc1 (stereo not drawn) [Example 44, 4-Fluoro-α-[3-(4-Fluorophenylthio)propyl]benzenemethanamine Hydrochloride] gave an inhibition in vivo of 25%.
Compound CC(C)c1ccc2c(c1)CCC1C(C)(CNCCC(N)c3ccccc3)CCCC21C (stereo not shown) [Example 56, Dihydrochloride] has an inhibition in vivo of 64%.
COc1ccc(C(N)CCNCC2(C)CCCC3(C)c4ccc(C(C)C)cc4CCC23)cc1 (stereo not drawn) [Example 57, α-(2-[1,4a-Dimethyl-7-(2-propyl)-1,2,3,4,4a,9,10,10a-octahydro-1-phenanthrenylmethylamino]ethyl)-4-methoxybenzenemethanamine Dihydrochloride] gave an inhibition in vivo of 60%.
CCCCCCC(C)OCCCC(N)c1ccc(F)cc1 (stereo not drawn) [Example 61, 4-Fluoro-α-[3-(2-octyloxy)propyl]benzenemethanamine] showed an inhibition in vivo of 25%.
